# Assays:
# HIV = assay: Inhibition of HIV-induced cytopathic effect in MT-4 cells (MTT); format: cell-based; conditions: for EC50: Human immunodeficiency virus 1, MT4, dose achieving 50% protection of HIV-infected MT-4 cells, MTT, 540 nm, read-out: ED50 (50% effective dose); for SI (selectivity index): ratio of CD50 to ED50
# Method: (§1) A rapid, sensitive and automated assay procedure was used for the in-vitro evaluation of anti-HIV agents. An […] T4-cell line, MT-4, which was previously shown (Koyanagi et al., Int. J. Cancer, 36, 445-451, 1985) to be highly susceptible to and permissive for HIV infection, served as the target cell line. Inhibition of the HIV-induced cytopathic effect was used as the end point. The viability of both HIV- and mock-infected cells was assessed spectrophotometrically via the in-situ reduction of 3-(4,5-dimethylthiazol-2-yl)-2,5-diphenyltetrazolium bromide (MTT). The 50% cytotoxic dose (CD50 in µg/ml) was defined as the concentration of compound that reduced the absorbance of the mock-infected control sample by 50%. The percent protection achieved by the compound in HIV-infected cells was calculated by the following formula: ((ODT )HIV - (ODC )HIV)/((ODC )MOCK - (ODC )HIV) [formula] expressed in %, whereby (ODT)HIV is the optical density measured with a given concentration of the test compound in HIV-infected cells; (ODC)HIV is the optical density measured for the control untreated HIV-infected cells; (ODC)MOCK is the optical density measured for the control untreated mock-infected cells; all optical density values were determined at 540 nm. The dose achieving 50% protection according to the above formula was defined as the 50% effective dose (ED50 in µg/ml). The ratio of CD50 to ED50 was defined as the selectivity index (SI).
# in vitro = format: cell-based; conditions: human, mt-4 cells
# Method: as §1
SMILES,EC50 (HIV) [µg/mL],SI (selectivity index) (HIV),CC50 (in vitro) [µg/mL]
CCC(=CCN1Cc2cc(Cl)cc3[nH]c(=O)n(c23)C[C@@H]1C)CC [compound 2],0.032,>312,> 10
"CCC(=CCN1Cc2c(C)ccc3[nH]c(=O)n(c23)C[C@@H]1C)CC [compound 5, (+)-(S)-6-(3-ethyl-2-pentenyl)-4,5,6,7-tetrahydro-5,8-dimethylimidazo-[4,5,1-jk][1,4]benzodiazepin-2(1H)-one]",0.038,370,14.3
"CCC(=CCN1Cc2cc(Cl)cc3[nH]c(=S)n(c23)C[C@@H]1C)CC.Cl [compound 7, (-)-(S)-9-chloro-6-(3-ethyl-2-pentenyl)-4,5,6,7-tetrahydro-5-methylimidazo[4,5,1-jk][1,4]benzodiazepine-2(1H)-thione monohydrochloride]",0.006,850,5.2
